ChEMBL document CHEMBL1201862, “PubChem BioAssay data set” (2004)
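How tested: cells in 96-well plates exposed to compound for 48 hours at five concentrations. GI50 is the concentration that inhibits growth by half.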 The source made the active and inactive calls. Rule as the data show it: active = GI50 up to about 1.1 µM and inactive = higher.

Columns and labels:
Experiment in all cases: NCI anticancer screen, dose series, 48 h
A498 = tested on: A498
A549 = tested on: A549
ACHN = tested on: ACHN
CCRF-CEM = tested on: CCRF-CEM
EKVX = tested on: EKVX
HL-60 = tested on: HL-60
HOP-92 = tested on: HOP-92
KM12 = tested on: KM12
M14 = tested on: M14
MOLT-4 = tested on: MOLT-4
NCI-H460 = tested on: NCI-H460
OVCAR-5 = tested on: OVCAR-5
RPMI-8226 = tested on: RPMI-8226
RXF 393 = tested on: RXF 393
SF-295 = tested on: SF-295
SK-MEL-28 = tested on: SK-MEL-28
SK-OV-3 = tested on: SK-OV-3

Measured: GI50

CCc1cccc(C)c1NC(=O)C1=C(C)NC(C)=C(C(=O)Nc2c(C)cccc2CC)C1c1ccc([N+](=O)[O-])cc1
inactive: A498 40.8 µM | A549 33.5 µM | ACHN 18.3 µM | CCRF-CEM 27.4 µM | EKVX 27.8 µM | HL-60 17.9 µM | HOP-92 2.75 µM | KM12 49.9 µM | M14 34.8 µM | MOLT-4 11.6 µM | NCI-H460 28.6 µM | OVCAR-5 > 100 µM | RPMI-8226 15.3 µM | RXF 393 24.4 µM | SF-295 58.7 µM | SK-MEL-28 51.4 µM | SK-OV-3 > 100 µM

CC(C)[C@H](COC(C)(C)C)/N=C/N1CSc2ccccc21
inactive: A498 46.1 µM | A549 42 µM | ACHN 25.7 µM | CCRF-CEM 33.1 µM | EKVX 44.1 µM | HL-60 26.4 µM | HOP-92 17.6 µM | KM12 27.6 µM | M14 36.3 µM | MOLT-4 36.1 µM | NCI-H460 33 µM | OVCAR-5 > 100 µM | RPMI-8226 20.4 µM | RXF 393 28.7 µM | SF-295 24.4 µM | SK-MEL-28 72.3 µM | SK-OV-3 29 µM

COC(c1ccccc1)C(c1ccccc1)N1CCOCC1 (centres undefined)
inactive: A498 > 100 µM | A549 > 100 µM | ACHN > 100 µM | CCRF-CEM > 100 µM | EKVX > 100 µM | HL-60 89.5 µM | HOP-92 > 100 µM | KM12 > 100 µM | M14 > 100 µM | MOLT-4 > 100 µM | NCI-H460 > 100 µM | OVCAR-5 > 100 µM | RPMI-8226 49.7 µM | RXF 393 > 100 µM | SF-295 > 100 µM | SK-MEL-28 > 100 µM | SK-OV-3 > 100 µM

Cc1ccc(NC(=O)NC23CC4CC(CC(F)(C4)C2)C3)cc1
inactive: A498 > 100 µM | A549 > 100 µM | ACHN > 100 µM | CCRF-CEM 56.4 µM | EKVX 92.3 µM | HL-60 64.3 µM | HOP-92 55.2 µM | KM12 82.6 µM | M14 95.3 µM | MOLT-4 40.6 µM | NCI-H460 > 100 µM | OVCAR-5 > 100 µM | RPMI-8226 28.3 µM | RXF 393 > 100 µM | SK-MEL-28 > 100 µM | SK-OV-3 > 100 µM

Cc1ccccc1NC(=O)/C(=N\NC(N)=S)C(C#N)c1ccccc1 (centres undefined)
inactive: A498 > 100 µM | A549 > 100 µM | ACHN > 100 µM | CCRF-CEM > 100 µM | EKVX > 100 µM | HL-60 > 100 µM | HOP-92 > 100 µM | KM12 > 100 µM | M14 > 100 µM | MOLT-4 > 100 µM | NCI-H460 > 100 µM | OVCAR-5 > 100 µM | RPMI-8226 > 100 µM | RXF 393 > 100 µM | SF-295 > 100 µM | SK-MEL-28 > 100 µM | SK-OV-3 > 100 µM

CC12CCC(=O)C[C@H]1CCC(OC=O)C2Br (some centres undefined)
inactive: A498 > 100 µM | A549 > 100 µM | ACHN > 100 µM | CCRF-CEM > 100 µM | HL-60 > 100 µM | HOP-92 > 100 µM | KM12 > 100 µM | M14 > 100 µM | MOLT-4 > 100 µM | NCI-H460 > 100 µM | OVCAR-5 > 100 µM | RPMI-8226 > 100 µM | SF-295 > 100 µM | SK-MEL-28 > 100 µM | SK-OV-3 > 100 µM
